Measured values from paper PMC8969509 (Journal of Antimicrobial Chemotherapy, 2022).

Biological target: T1, Mtb topoisomerase I (Mycobacterium tuberculosis, UniProt P9WG49)
T1 construct: gene topA
Assay: biochemical

T1 sequence (P9WG49 whole entry): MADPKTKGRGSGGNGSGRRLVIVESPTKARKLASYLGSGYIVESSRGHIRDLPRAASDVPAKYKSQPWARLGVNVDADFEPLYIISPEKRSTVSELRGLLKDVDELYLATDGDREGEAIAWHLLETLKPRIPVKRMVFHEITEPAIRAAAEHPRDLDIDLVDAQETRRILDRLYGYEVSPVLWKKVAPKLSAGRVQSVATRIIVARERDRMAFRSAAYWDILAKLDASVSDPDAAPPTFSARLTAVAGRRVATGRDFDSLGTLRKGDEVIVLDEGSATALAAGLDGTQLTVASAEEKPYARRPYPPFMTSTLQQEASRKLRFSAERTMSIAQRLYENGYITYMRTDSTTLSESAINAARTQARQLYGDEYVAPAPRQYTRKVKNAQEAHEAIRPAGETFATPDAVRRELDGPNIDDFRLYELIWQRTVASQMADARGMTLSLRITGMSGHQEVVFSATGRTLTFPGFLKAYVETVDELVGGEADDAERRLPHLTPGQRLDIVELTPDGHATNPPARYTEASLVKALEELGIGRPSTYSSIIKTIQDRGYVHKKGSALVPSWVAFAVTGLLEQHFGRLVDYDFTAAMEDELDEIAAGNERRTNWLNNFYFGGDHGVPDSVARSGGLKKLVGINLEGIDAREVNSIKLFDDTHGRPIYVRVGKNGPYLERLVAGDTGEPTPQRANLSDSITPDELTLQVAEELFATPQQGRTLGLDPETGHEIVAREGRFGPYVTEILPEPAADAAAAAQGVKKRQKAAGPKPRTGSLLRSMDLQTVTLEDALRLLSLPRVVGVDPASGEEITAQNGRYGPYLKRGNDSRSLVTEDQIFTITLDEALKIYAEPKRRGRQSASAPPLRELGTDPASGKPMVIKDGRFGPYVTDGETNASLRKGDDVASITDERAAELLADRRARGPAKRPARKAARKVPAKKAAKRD

Compound COc1cc(NS(C)(=O)=O)ccc1Nc1c2ccccc2nc2ccccc12 [mAMSA] has an IC50 of 17.4 µM.
